For data set [1], the system named is sympathetic nervous system. The following applies: rat, in vivo.
Experimental: For all groups, anesthesia (isofluorane 0.5-3%) was initiated in an induction chamber and maintained with a facemask. […] Both groups were survived for 10 days following implantation of the pump at which time the animals were euthanized with intraperitoneal injection of pentobarbitone. Throughout the study only one ligament per animal was used for a particular experimental test protocol (described below).
Statistical analysis was performed using an unpaired t-test (alpha=0.05) to compare differences between the control and treatment groups.
The subject of data set [2] is intact MCL. The settings on record: guanethidine 40 mg/kg/day, 10 days. The method, then:
Ligament thickness and width was measured optically, and MCL area was estimated with elliptical geometry. […] For strain measurements, optical markers were placed onto the ligament tissue near the insertion sites. A small preload of 0.1N was applied to the ligaments in order to obtain a uniform starting point. The ligaments were then preconditioned to 1% strain for 10 cycles.
The mechanical properties that were examined in this study were maximum force, ultimate stress, strain at failure, elastic modulus, and area.

Data set [3] relates to MCL. The data set can be described thus: MCL organ culture with guanethidine, mechanical testing. The following applies: organ culture 10 days with guanethidine in media.
Experimental: Bilateral MCLs (n=6) including intact femoral and tibial segments were aseptically harvested from untreated rats.
During and after harvest, tissues were rinsed in sterile phosphate buffered saline (PBS) containing penicillin (100 U/mL), streptomycin (100 μg/mL), and fungizone (0.25 μg/mL). Bone blocks were trimmed in order to minimize the amount of bone marrow, which may alter the culture environment. Tissues were then cultured in Dulbecco's Modified Eagle's Medium (DMEM) supplemented with 10% fetal bovine serum, nonessential amino acids (0.1 mM), L-gutamine (4 mM), penicillin (100 U/mL), streptomycin (100 μg/mL), and fungizone (0.25 μg/mL). […] The cultures were maintained in an incubator at 37° C. and 5% CO2. Media were changed every 48 hours at which time tissues were rinsed with sterile PBS to reduce drug carryover into the fresh media containing the treatment drug or equivalent volume of carrier. Organ culture was maintained for 10 days after which time the MCLs were tested mechanically in the same manner as the in vivo treatment group (described below).

As to `N=C(N)NCCN1CCCCCCC1` [guanethidine], the “abnormalities in movement, body weight, or behavior” value in data set [1] was “No abnormalities”. In data set [2], the “mean ultimate tensile force” value was “not significantly decreased” and the strain at failure is 8.1±0.4%. In data set [2] (tissue hydration), the wet weight is 6.8 ± 0.7 g. Moreover, the ultimate stress in data set [3] worked out at 70.29±19.15 MPa.

For the origin of these results see patent US20060247156A1, “Use of neuropeptides for ligament, cartilage, and bone healing” (priority 2004, published 2006).
